Consider six compounds from PMC8839448, “Novel Pyridothienopyrimidine Derivatives: Design, Synthesis and Biological Evaluation as Antimicrobial and Anticancer Agents” (Molecules, 2022).

Data set [1] deals with all the tested yeasts and fungi strains. Nature of the data set: Antifungal MIC, range over the panel. It counts as cell-based.
The test system of data set [2] is Saccharomycese cerevisiae. Briefly: In vitro antifungal activity, MIC by broth dilution. It is filed as cell-based. The following applies: Saccharomyces cerevisiae, yeast, read-out: MIC S. cerevisiae. A general note: In broth dilution the organism is exposed to a series of concentrations in liquid medium.
A further data set has as its system Candida albicans 10231. The description is as above. It counts as cell-based. The note with it: yeast, read-out: MIC C. albicans.
The subject of data set [3] is Aspergillus niger EM77 (KF774181). The data set is described as above. It is filed as cell-based. The following applies: fungi.
Data set [4] has as its system breast cancer (MCF-7) cells. Nature of the data set: Cytotoxicity, MTT assay. It counts as cell-based, human. The following applies: read-out: Cytotoxic activity IC50 MCF7.
A short description of data set [5]: Cytotoxicity against normal cells, MTT assay. The note with it: human, WISH normal cells.
Source text: The cytotoxicity was estimated as IC50 in μM for the tested compounds and the reference drug doxorubicin, and are listed in Table 3.
Another data set concerns Candida tropicals 750. Nature of the data set: In vitro antifungal activity, MIC by broth dilution. It is filed as cell-based. The following applies: yeast, read-out: MIC C. tropicals.
Another data set concerns the target EGFR kinase (Homo sapiens, UniProt P00533). Briefly: In vitro EGFR kinase inhibitory assay (Kinase-Glo MAX kit). The following applies: EGFR IC50, EGFR kinase assay kit, triplicate, ± SD.
Data set [6] deals with Salmonella typhimurium 14028. Nature of the data set: In vitro antibacterial activity, MIC by broth dilution. It counts as cell-based. The following applies: Salmonella enterica, Gram −ve bacteria, read-out: MIC S. typhimurium.
The subject of data set [7] is Staphylococcus aureus 25923. The data set is described as above. The note with it: Gram +ve bacteria, read-out: MIC S. aureus. It is filed as cell-based.
In data set [8] the test system is hepatocellular carcinoma (HepG2) cells. Briefly: Cytotoxicity, MTT assay. It is filed as cell-based. The following applies: Homo sapiens, read-out: Cytotoxic activity IC50 HepG2.
Another data set deals with Escherichia coli 8739. Nature of the data set: In vitro antibacterial activity, MIC by broth dilution. It is filed as cell-based. The following applies: Gram −ve bacteria.
The next data set relates to Bacillus cereus 33018. Nature of the data set: In vitro antibacterial activity, MIC by broth dilution. It counts as cell-based. The following applies: Gram +ve bacteria, read-out: MIC B. cereus.
A further data set has as its system Aspergillus flavus. Nature of the data set: In vitro antifungal activity, MIC by broth dilution. It is filed as cell-based. The note with it: fungi.
A further data set concerns Bacillus subtilis 6633. Briefly: In vitro antibacterial activity, MIC by broth dilution. It is filed as cell-based. The note with it: Gram +ve bacteria, read-out: MIC B. subtilis.
Data set [9] concerns HepG2 and MCF-7 cancer cell lines. Briefly: Cytotoxicity, MTT assay, range over both cancer cell lines. It is filed as cell-based, human. The following applies: Homo sapiens; range over HepG2 and MCF-7; read-out: IC50 range, cytotoxic activity against both cell lines.
The next data set relates to five bacterial strains. Briefly: Antibacterial MIC, range over the panel. It is filed as cell-based.
Data set [10] relates to five bacterial and five fungal strains. Briefly: Antimicrobial MIC, range over bacterial and fungal strains. It is filed as cell-based. The following applies: range over strains.

Converted amounts (≈) assume the structure as drawn. Read-outs that look alike come from different tables or passages of the source.

What is called MIC is the lowest concentration that inhibits growth of the organism. A word on the IC50: it is the point on the concentration scale where inhibition reaches its midpoint. In general, melting point refers to the temperature, or range, at which the solid turns liquid.

Chain of EGFR kinase (P00533 25-1210): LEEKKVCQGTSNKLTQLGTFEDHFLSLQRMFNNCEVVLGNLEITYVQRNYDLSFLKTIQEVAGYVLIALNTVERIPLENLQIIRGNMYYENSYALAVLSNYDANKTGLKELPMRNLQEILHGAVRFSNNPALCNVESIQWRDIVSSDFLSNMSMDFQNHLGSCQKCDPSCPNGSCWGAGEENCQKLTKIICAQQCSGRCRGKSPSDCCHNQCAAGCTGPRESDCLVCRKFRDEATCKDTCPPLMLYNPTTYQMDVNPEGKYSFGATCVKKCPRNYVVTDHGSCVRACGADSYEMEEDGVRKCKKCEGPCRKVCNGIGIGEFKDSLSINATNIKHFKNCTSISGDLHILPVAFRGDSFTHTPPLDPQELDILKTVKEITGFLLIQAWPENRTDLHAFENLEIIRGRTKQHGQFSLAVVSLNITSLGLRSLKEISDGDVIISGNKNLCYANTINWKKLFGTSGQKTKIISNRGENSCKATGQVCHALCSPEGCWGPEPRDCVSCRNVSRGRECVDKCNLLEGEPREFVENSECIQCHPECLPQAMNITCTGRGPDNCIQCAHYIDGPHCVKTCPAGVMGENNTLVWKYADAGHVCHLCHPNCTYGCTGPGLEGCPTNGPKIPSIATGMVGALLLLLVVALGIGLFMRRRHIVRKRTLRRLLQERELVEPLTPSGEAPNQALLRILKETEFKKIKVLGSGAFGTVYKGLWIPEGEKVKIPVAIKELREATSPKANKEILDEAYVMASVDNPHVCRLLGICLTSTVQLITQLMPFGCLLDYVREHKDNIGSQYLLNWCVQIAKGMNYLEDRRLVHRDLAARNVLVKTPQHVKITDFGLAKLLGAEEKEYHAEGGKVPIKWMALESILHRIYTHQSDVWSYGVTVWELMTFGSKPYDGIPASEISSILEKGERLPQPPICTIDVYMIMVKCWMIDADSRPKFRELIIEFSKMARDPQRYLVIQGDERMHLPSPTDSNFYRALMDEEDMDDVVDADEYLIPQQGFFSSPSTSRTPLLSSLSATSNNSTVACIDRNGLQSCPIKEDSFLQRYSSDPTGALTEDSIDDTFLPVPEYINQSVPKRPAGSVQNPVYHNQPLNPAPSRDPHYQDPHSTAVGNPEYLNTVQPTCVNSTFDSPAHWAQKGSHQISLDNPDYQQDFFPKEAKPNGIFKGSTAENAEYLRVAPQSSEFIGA
Procedure for EGFR kinase: The assay kit is designed to measure EGFR Kinase activity for screening applications using Kinase-Glo® MAX as a detection reagent. The luminescence was measured using a microplate reader (Infinite M200 microplate reader, Tecan, Männedorf, Switzerland) [54]. All assays were performed in triplicate and the relative inhibition (%) of inhibitors was then calculated via comparison with the control with no inhibitor.
In vitro EGFR kinase assay
The assay Kit is designed to measure EGFR Kinase
activity for screening applications using Kinase-Glo® MAX as a detection reagent
using Kinase-Glo® MAX as a detection reagent. Thaw 5x Kinase Buffer 1: ATP and
PTK substrate Poly (Glu:Tyr 4:1) (10 mg/ml) kinase was provided. Then the master
mixture was prepared: N wells x (6 μl 5x Kinase Buffer 1 + 1 µl ATP (500 µM) + 1
µl PTK substrate Poly (Glu:Tyr 4:1) (10 mg/ml)+ 17 μl water) and 25 μl of the
mixture was added to every well. The tested compounds were dissolved in DMSO,
well labeled as “Positive Control", 5 μl of the same solution of the reference drug
erlotinib and “Blank”, 5 μl of the same solution without inhibitor (Inhibitor buffer).
ml of 1x Kinase Buffer 1) was prepared by mixing 600 µl of 5x Kinase Buffer 1 with
The reaction initiated by adding 20 µl of diluted EGFR enzyme to the wells designated “Positive Control” and "Test Inhibitor Control". Incubate at 30°C for 40
minutes. Thaw Kinase-G lo Max reagent. After the 40 minute reaction, 50 µl of
Kinase-Glo Max reagent was added to each well. The plate was covered with
aluminum foil and incubate at room temperature for 15 minutes. Then the
luminescence was measured using the microplate reader (Infinite M200 microplate
reader, Tecan, Männedorf, Switzerland). All assays were performed in triplicate. The
relative inhibition (%) of inhibitors were then calculated compared to the control with
no inhibitor. Then the IC50 values and their standard deviation (SD) for the tested
compounds and the reference drug were determined in (nM).

Take `Cc1ccc(-c2cc(-c3ccccc3)nc3sc4c(c23)NC2(CCCC2)N=C4SCC(N)=O)cc1` [Compound 8b, 2-((7′-Phenyl-9′-(p-tolyl)-1′H-spiro[cyclopentane-1,2′-pyrido[3′,2′:4,5]thieno[3,2-d]pyrimidin]-4′-yl)sulfanyl)acetamide]: the melting point was in the range of 148 to 149 °C. Also, the “MIC range against the tested yeasts and fungi strains” value in data set [1] was in the range of 4 to 16 µg/mL. In addition, the MIC in data set [2] was 16 µg/mL (≈ 32.1 µM). Besides, the MIC in the data set with Candida albicans 10231 stood at 8 µg/mL (≈ 16 µM). This compound displayed an MIC in data set [3] of 8 µg/mL (≈ 16 µM). In addition, in [4] (Homo sapiens, MCF7, MCF7 cells), the IC50 was found to be 13.5 ± 0.76 µM. The same compound came in with an IC50 in data set [5] of 401 ± 17.3 µM. For the same compound, in the data set on Candida tropicals 750, the MIC came out at 16 µg/mL (≈ 32.1 µM). At EGFR kinase, the half-inhibitory concentration (IC50) was 0.03844 ± 0.00025 µM. For the same compound, the MIC in data set [6] came out at 16 µg/mL (≈ 32.1 µM). Moreover, in data set [7], the MIC turned out to be 4 µg/mL (≈ 8.02 µM). Also, the IC50 in [8] amounted to 2.79 ± 0.08 µM. In addition, in the data set with Escherichia coli 8739, the MIC turned out to be 8 µg/mL (≈ 16 µM). Further, the MIC with Bacillus cereus 33018 amounted to 16 µg/mL (≈ 32.1 µM). In the data set on Aspergillus flavus, this compound came in with an MIC of 8 µg/mL (≈ 16 µM). Also, the MIC with Bacillus subtilis 6633 turned out to be 8 µg/mL (≈ 16 µM).

`Cc1cc(C)c2c3c(sc2n1)C(=O)NC1(CCCCC1)N3` [Compound 6c, 7′,9′-Dimethyl-1′H-spiro[cyclohexane-1,2′-pyrido[3′,2′:4,5]thieno[3,2-d]pyrimidin]-4′(3′H)-one] came in with a melting point of 290 to 291 °C. The half-inhibitory concentration (IC50) in data set [9] is 12.1 to 77.4 µM. For the same compound, the “MIC range against the tested yeasts and fungi strains” value in data set [1] fell in the range of 4 to 16 µg/mL. Also, in data set [2], the MIC is 16 µg/mL (≈ 53.1 µM). Further, the MIC in the data set with Candida albicans 10231 is 16 µg/mL (≈ 53.1 µM). The MIC in data set [3] was found to be 8 µg/mL (≈ 26.5 µM). In data set [4] (Homo sapiens, MCF7, MCF7 cells), the concentration for half-maximal inhibition (IC50) came to 22.2 ± 0.67 µM. Moreover, the MIC in the data set with Candida tropicals 750 worked out at 4 µg/mL (≈ 13.3 µM). Also, the MIC in [6] was 16 µg/mL (≈ 53.1 µM). Besides, the MIC in data set [7] turned out to be 4 µg/mL (≈ 13.3 µM). In addition, the 50% inhibitory concentration (IC50) in [8] was 12.1 ± 0.33 µM. The compound also showed an MIC in the data set with Escherichia coli 8739 of 8 µg/mL (≈ 26.5 µM). In the data set with Bacillus cereus 33018, the MIC stood at 8 µg/mL (≈ 26.5 µM). Besides, the MIC against Aspergillus flavus amounted to 4 µg/mL (≈ 13.3 µM). The MIC in the data set on Bacillus subtilis 6633 is 4 µg/mL (≈ 13.3 µM).

Consider `Cc1cc(C)c2c3c(sc2n1)C(=O)NC1(CCCC1)N3` [Compound 6a, 7′,9′-Dimethyl-1′H-spiro[cyclopentane-1,2′-pyrido[3′,2′:4,5]thieno[3,2-d]pyrimidin]-4′(3′H)-one], for which the melting point is 245 to 246 °C. Moreover, the IC50 in data set [9] was 12.1 to 77.4 µM. The MIC in [2] is 32 µg/mL (≈ 111 µM). Besides, the MIC in the data set with Candida albicans 10231 is 64 µg/mL (≈ 223 µM). The same compound gave an MIC in data set [3] of 32 µg/mL (≈ 111 µM). Besides, in [4] (Homo sapiens, MCF7, MCF7 cells), the IC50 was 77.4 ± 3.62 µM. Also, in the data set with Candida tropicals 750, the MIC was 16 µg/mL (≈ 55.7 µM). In addition, in data set [6], the MIC worked out at 16 µg/mL (≈ 55.7 µM). In data set [7], the MIC is 32 µg/mL (≈ 111 µM). Also, the IC50 in data set [8] came out at 52.2 ± 1.45 µM. This compound also yielded a minimal inhibitory concentration (MIC) in the data set on Escherichia coli 8739 of 32 µg/mL (≈ 111 µM). Besides, the minimum inhibitory concentration (MIC) with Bacillus cereus 33018 was 8 µg/mL (≈ 27.8 µM). In the data set with five bacterial strains, the “MIC range against the tested bacterial strains” value lay in the range of 8 to 32 µg/mL. Also, the MIC against Aspergillus flavus turned out to be 64 µg/mL (≈ 223 µM). Further, the minimum inhibitory concentration (MIC) in the data set with Bacillus subtilis 6633 was determined as 16 µg/mL (≈ 55.7 µM).

For the compound `Cc1cc(C)c2c3c(sc2n1)C(SCC1CO1)=NC1(CCCCC1)N3` (stereo not drawn) [Compound 9a, 7′,9′-Dimethyl-4′-((oxiran-2-ylmethyl)sulfanyl)-1′H-spiro[cyclohexane-1,2′-pyrido[3′,2′:4,5]thieno[3,2-d]pyrimidine]], the melting point worked out at 155 °C. Also, in [2], the minimal inhibitory concentration (MIC) was 32 µg/mL (≈ 85.7 µM). In addition, in the data set on Candida albicans 10231, the MIC was determined as 16 µg/mL (≈ 42.8 µM). The MIC in [3] was determined as 64 µg/mL (≈ 171 µM). Moreover, the IC50 in [4] (Homo sapiens, MCF7, MCF7 cells) turned out to be 23.6 ± 1.24 µM. Also, the MIC in the data set on Candida tropicals 750 stood at 32 µg/mL (≈ 85.7 µM). Further, the minimal inhibitory concentration (MIC) in data set [6] came out at 16 µg/mL (≈ 42.8 µM). In data set [7], the MIC is 16 µg/mL (≈ 42.8 µM). In addition, the IC50 in [8] is 4.88 ± 0.65 µM. In addition, in the data set on Escherichia coli 8739, the MIC is 32 µg/mL (≈ 85.7 µM). In addition, the minimum inhibitory concentration (MIC) with Bacillus cereus 33018 stood at 8 µg/mL (≈ 21.4 µM). For the same compound, the “MIC range against the tested bacterial strains” value in the data set with five bacterial strains lay within 8 to 32 µg/mL. The compound further displayed an MIC in the data set with Aspergillus flavus of 16 µg/mL (≈ 42.8 µM). The minimal inhibitory concentration (MIC) in the data set with Bacillus subtilis 6633 was found to be 32 µg/mL (≈ 85.7 µM).

Regarding `CC1(C)S[C@@H]2[C@H](NC(=O)[C@H](N)c3ccc(O)cc3)C(=O)N2[C@H]1C(=O)O` [Amoxicillin, amoxicillin trihydrate, reference compound], in [10], the “MIC range of the reference drugs” value was in the range of 4 to 16 µM. The MIC in data set [6] is 16 µg/mL; in data set [7], 4 µg/mL; in the data set with Escherichia coli 8739, 8 µg/mL; with Bacillus cereus 33018 it was 16 µg/mL; in the data set with Bacillus subtilis 6633, 8 µg/mL. Further, in the data set with five bacterial strains, the “MIC range against the tested bacterial strains” value lay in the range of 4 to 16 µg/mL.

On to `Cc1ccc(-c2cc(-c3ccccc3)nc3sc4c(c23)NC2(CCCC2)NC4=O)cc1` [Compound 6b, 7′-Phenyl-9′-(p-tolyl)-1′H-spiro[cyclopentane-1,2′-pyrido[3′,2′:4,5]thieno[3,2-d]pyrimidin]-4′(3′H)-one], for which the melting point turned out to be 210 °C. In addition, in data set [1], the “MIC range against the tested yeasts and fungi strains” value is 4 to 16 µg/mL. Further, the MIC in data set [2] was found to be 8 µg/mL (≈ 18.8 µM). Also, in the data set on Candida albicans 10231, the MIC was 8 µg/mL (≈ 18.8 µM). Moreover, in data set [3], it took 8 µg/mL (≈ 18.8 µM) to inhibit growth (MIC). Moreover, the half-inhibitory concentration (IC50) in data set [4] (Homo sapiens, MCF7, MCF7 cells) was 9.89 ± 0.55 µM. In [4] (MCF7 cells), the IC50 was determined as 9.89 ± 0.55 µM. Further, the IC50 in data set [5] is 395 ± 10.2 µM. Moreover, in the data set with Candida tropicals 750, the MIC is 8 µg/mL (≈ 18.8 µM). The compound further displayed an IC50 against EGFR kinase of 0.05319 ± 0.00046 µM. For the same compound, the minimum inhibitory concentration (MIC) in [6] came out at 16 µg/mL (≈ 37.6 µM). Further, the MIC in data set [7] was found to be 4 µg/mL (≈ 9.4 µM). Moreover, the IC50 in [8] is 2.75 ± 0.13 µM. This compound also had an MIC against Escherichia coli 8739 of 8 µg/mL (≈ 18.8 µM). In addition, the minimal inhibitory concentration (MIC) in the data set with Bacillus cereus 33018 came out at 16 µg/mL (≈ 37.6 µM). Moreover, the MIC against Aspergillus flavus came to 16 µg/mL (≈ 37.6 µM). For the same compound, the MIC with Bacillus subtilis 6633 is 8 µg/mL (≈ 18.8 µM).
